Laboratory results taken from patent US9169241B2, “Quinolinyloxyphenylsulfonamides” (Max-Planck-Gesellschaft Zur Forderung der Wissenschaften …, priority 2009, dated 2015).
pIC50: −log10 of the molar value.

What was measured:
[1] = target: T1, wild type AXL (wtAXL) receptor tyrosine kinase (Homo sapiens, UniProt P30530); assay: NIH-3T3-AXL cellular kinase assay (pY-AXL-ELISA); format: cell-based; conditions: NIH-3T3-AXL (clone 22) cells, serum depleted, compounds 1 h; Table Ia
T1 construct: WtAXL cDNA was cloned into vector pLXSN(ESK) and transfected into Phoenix E packaging cells; expressed in transfected cells; host or cells: NIH3T3 N7 (mouse fibroblasts), retrovirally infected, clone 22
T1 sequence (P30530 26-894): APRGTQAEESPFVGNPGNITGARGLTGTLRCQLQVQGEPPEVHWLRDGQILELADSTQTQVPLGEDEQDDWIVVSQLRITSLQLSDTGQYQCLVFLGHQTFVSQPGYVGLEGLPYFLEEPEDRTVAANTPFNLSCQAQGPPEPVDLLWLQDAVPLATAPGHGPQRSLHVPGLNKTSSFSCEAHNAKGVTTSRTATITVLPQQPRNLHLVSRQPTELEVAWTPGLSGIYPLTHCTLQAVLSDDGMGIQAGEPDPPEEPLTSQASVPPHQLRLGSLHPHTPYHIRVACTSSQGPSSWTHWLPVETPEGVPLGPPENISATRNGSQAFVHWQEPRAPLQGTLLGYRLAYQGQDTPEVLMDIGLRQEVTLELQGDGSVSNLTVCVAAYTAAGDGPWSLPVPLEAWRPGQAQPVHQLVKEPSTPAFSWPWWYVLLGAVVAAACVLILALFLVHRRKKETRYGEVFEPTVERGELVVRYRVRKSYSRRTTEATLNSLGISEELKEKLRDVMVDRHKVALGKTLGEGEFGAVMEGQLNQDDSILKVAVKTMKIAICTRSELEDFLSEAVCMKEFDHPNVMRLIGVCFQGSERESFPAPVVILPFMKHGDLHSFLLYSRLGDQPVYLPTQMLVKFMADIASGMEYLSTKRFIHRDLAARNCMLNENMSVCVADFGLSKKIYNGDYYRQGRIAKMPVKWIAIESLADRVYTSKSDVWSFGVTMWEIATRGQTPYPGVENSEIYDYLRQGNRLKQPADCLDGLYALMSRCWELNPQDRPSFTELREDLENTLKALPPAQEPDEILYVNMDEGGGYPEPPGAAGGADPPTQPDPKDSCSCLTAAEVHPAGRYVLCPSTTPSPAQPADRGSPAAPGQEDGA
Procedure: WtAXL cDNA was cloned into vector pLXSN(ESK) and transfected into Phoenix E packaging cells. The viral supernatant was collected and used to infect target cells NIH3T3 N7. Monoclonal NIH3T3-AXL cell lines stably expressing wtAXL were generated by selecting retrovirally infected cells in medium containing puromycin (2 μg/ml) and subsequent clonal separation.
Serial dilutions of compounds were added, and the cells were further incubated for 1 h. Cells were washed with PBS and lysed on ice in 500 μl lysis buffer (50 mM HEPES (pH 7.5), 150 mM NaCl, 1 mM EGTA, 10% Glycerol, 1% Triton X-100, 100 mM NaF, 10 mM Na4P2O7.10H2O, 1 mM Na3VO4, 1 mM phenylmethylsulfonyl fluoride, and […]) for 15 min. The cell lysate were used for phosphotyrosine AXL enzyme-linked immunosorbant assay (pY-AXL-ELISA). […] Subsequently 96-well plates were blocked with PBS-0.05% Tween®20+10% FBS for 4 h at 37° C. Plates were washed 5 times with PBS-0.05% Tween®20 and 95 μl of lysate was transferred per well for incubation overnight at 4° C. Plates were washed 5 times with PBS-0.05% Tween®20 (Sigma, Steinheim, Germany). For detection of phosphorylated tyrosine we used homemade biotynilated 4G10-antibody (0.5 μg/ml) in PBS-0.05% Tween®20+10% FBS (100 μl/well) and incubated the 96-well plate for 2 h at room temperature. The anti-phosphotyrosine mouse monoclonal antibody 4G10 was biotynilated with Sulfo-NHS®-Biotin according to the suppliers protocol (Pierce, Rockford, Ill., USA) and purified by Mirco Bio-Spin 6 Chromatograpy Columns (BIO RAD Laboratories, Inc., Hercules, Calif., USA) using PBS as diluent. Plates were washed 5 times with PBS-0.05% Tween®20. For biding to biotin Alkaline Phosphatase Conjugated Strepavidin SA110 (Millipore, Billerica, Mass., USA) (1:4000) was used in PBS-0.05% Tween20+10% FBS (100 μl/well) and incubated for 30 min at room temperature. Plates were washed 5 times with PBS-0.05% Tween20. For fluorimetric detection of alkaline phosphatase AttoPhos Substrate Set (Roche diagnostics GmbH, Mannheim, Germany) was used (100 μl/well). The fluorimetric signal was quantified after 90 min at 430/560 nm wavelength using a TECAN Ultra Evolution plate reader (Tecan Deutschland GmbH, Crailsheim, Germany).

[2] = system: Hs578T; assay: Cell vitality assay (ATP assay, CellTiter-Glo); format: cell-based; conditions: Homo sapiens, Hs-578T; HS578T cell line, 72 h; Table Ib; read-out: IC50 ATP-Assay HS578T after 72 h
Procedure, shortened: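 1000 cells/well incubated 72 h with compound at 12.5 down to 0.195 μM (twofold steps) or DMSO control. Viability measured as cellular ATP by CellTiter-Glo luminescence; IC50 taken as the concentration giving 50% of the DMSO-control ATP level.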

[3] = system: Hs578T; assay: Wound healing migration assay; format: cell-based; conditions: Homo sapiens, Hs-578T; HS578T cell line; Table Ib
Procedure, shortened: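 Cells seeded at 150000/24 well, grown to monolayer overnight, scratched with a pipette tip, then treated with compound at 12.5, 6.25 or 3.125 μM versus DMSO. Stopped by crystal violet fixation at 48-72 h once control wounds closed; IC50 taken as 50% wound size between t0 and t48 or t72.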

[4] = system: Hs578T; assay: Matrigel outgrowth assay/branching assay; format: cell-based; conditions: Homo sapiens, Hs-578T; HS578T cell line; Table Ib; read-out: Total branching inhibition in Matrigel HS578T
Procedure, shortened: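 Cells (5000/well) were seeded onto polymerized 3 mg/ml Matrigel with compound at 3.125, 1.56 or 0.78 μM, or DMSO. Imaging by inverted microscopy at 48, 72 and 96 h scored invasive branching. Only concentrations giving total branching inhibition counted as positive.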

Row | Compound | pIC50 [1] | pIC50 [3] | melting point | pIC50 [2] | pIC50 [4]
1 | COc1cc2c(Oc3ccc(NS(=O)(=O)c4csc5ccccc45)cc3F)ccnc2cc1OCCCN1CCN(C)CC1 [Example 116, Benzo[b]thiophene-3-sulfonic acid (3-fluoro-4-{6-methoxy-7-[3-(4-methyl-piperazin-1-yl)-propoxy]-quinolin-4-yloxy}-phenyl)-amide] | > 6.30 | ≥ 4.90 | 112 to 114 °C | ≥ 4.90 | 4.60 to 5.00
2 | COc1cc2c(Oc3ccc(NS(=O)(=O)c4csc5ccccc45)cc3Cl)ccnc2cc1OCCCN1CCN(C)CC1 [Example 117, Benzo[b]thiophene-3-sulfonic acid (3-chloro-4-{6-methoxy-7-[3-(4-methyl-piperazin-1-yl)-propoxy]-quinolin-4-yloxy}-phenyl)-amide] | > 6.30 | ≥ 4.90 | 98 to 101 °C | ≥ 4.90 | 4.60 to 5.00
3 | COc1cc2c(Oc3ccc(NS(=O)(=O)c4cc(Cl)ccc4Cl)cc3Cl)ccnc2cc1OCCCN1CCN(C)CC1 [Example 124, 2,5-Dichloro-N-(3-chloro-4-{6-methoxy-7-[3-(4-methyl-piperazin-1-yl)-propoxy]-quinolin-4-yloxy}-phenyl)-benzenesulfonamide] | > 6.30 | ≥ 4.90 | 144 to 145 °C | ≥ 4.90 | ≥ 5.00
4 | COc1cc2c(Oc3cccc(NS(=O)(=O)c4cc(Cl)ccc4Cl)c3)ccnc2cc1OCCCN1CCN(C)CC1 [Example 127, 2,5-Dichloro-N-(3-{6-methoxy-7-[3-(4-methyl-piperazin-1-yl)-propoxy]-quinolin-4-yloxy}-phenyl)-benzenesulfonamide] | 5.52 to 6.30 | ≥ 4.90 | 111 to 113 °C | ≥ 4.90 | ≥ 5.00
5 | COc1cc2c(Oc3cccc(NS(=O)(=O)c4c(Cl)cccc4Cl)c3)ccnc2cc1OCCCN1CCN(C)CC1 [Example 128, 2,6-Dichloro-N-(3-{6-methoxy-7-[3-(4-methyl-piperazin-1-yl)-propoxy]-quinolin-4-yloxy}-phenyl)-benzenesulfonamide] | 5.52 to 6.30 | ≥ 4.90 | 111 to 112 °C | ≥ 4.90 | ≥ 5.00
6 | COc1cc2c(Oc3cccc(NS(=O)(=O)c4cc(Cl)sc4Cl)c3)ccnc2cc1OCCCN1CCN(C)CC1 [Example 134, 2,5-Dichloro-thiophene-3-sulfonic acid (3-{6-methoxy-7-[3-(4-methyl-piperazin-1-yl)-propoxy]-quinolin-4-yloxy}-phenyl)-amide] | 5.52 to 6.30 | ≥ 4.90 | 177 to 178 °C | ≥ 4.90 | ≥ 5.00
7 | COc1cc2c(Oc3cccc(NS(=O)(=O)c4csc5ccccc45)c3)ccnc2cc1OCCCN1CCN(C)CC1 [Example 136, Benzo[b]thiophene-3-sulfonic acid (3-{6-methoxy-7-[3-(4-methyl-piperazin-1-yl)-propoxy]-quinolin-4-yloxy}-phenyl)-amide] | 5.52 to 6.30 | ≥ 4.90 | 91 to 93 °C | ≥ 4.90 | ≥ 5.00
8 | COc1cc2c(Oc3ccc(NS(=O)(=O)c4cccs4)cc3F)ccnc2cc1OCCCN1CCCCC1C (centres unmarked) [Example 144, Thiophene-2-sulfonic acid (3-fluoro-4-{6-methoxy-7-[3-(2-methyl-piperidin-1-yl)-propoxy]-quinolin-4-yloxy}-phenyl)-amide] | > 6.30 | ≥ 4.90 | 117 to 119 °C | ≥ 4.90 | 4.60 to 5.00
9 | COc1cc2c(Oc3ccc(NS(=O)(=O)c4ccc(Cl)s4)cc3F)ccnc2cc1OCCCN1CCCCC1C (centres unmarked) [Example 145, 5-Chloro-thiophene-2-sulfonic acid (3-fluoro-4-{6-methoxy-7-[3-(2-methyl-piperidin-1-yl)-propoxy]-quinolin-4-yloxy}-phenyl)-amide] | > 6.30 | ≥ 4.90 | 118 to 120 °C | ≥ 4.90 | 4.60 to 5.00

More lines, main results first:

Row | pIC50 [1] | pIC50 [3] | melting point | Compound | pIC50 [2] | pIC50 [4]
10 | > 6.30 | ≥ 4.90 | 170 to 171 °C | COc1cc2c(Oc3ccc(NS(=O)(=O)c4ccccc4F)cc3Cl)ccnc2cc1OCCCN1CCN(C)CC1 [Example 111, N-(3-Chloro-4-{6-methoxy-7-[3-(4-methyl-piperazin-1-yl)-propoxy]-quinolin-4-yloxy}-phenyl)-2-fluoro-benzenesulfonamide] | ≥ 4.90 | ≥ 5.00
11 | > 6.30 | ≥ 4.90 | 128 to 130 °C | COc1cc2c(Oc3ccc(NS(=O)(=O)c4csc5ccccc45)cc3F)ccnc2cc1OCCCN1CCCCC1 [Example 113, Benzo[b]thiophene-3-sulfonic acid {3-fluoro-4-[6-methoxy-7-(3-piperidin-1-yl-propoxy)-quinolin-4-yloxy]-phenyl}-amide] | ≥ 4.90 | ≥ 5.00
12 | > 6.30 | 4.30 to 4.90 | 196 to 197 °C | COc1cc2c(Oc3ccc(NS(=O)(=O)c4csc5ccccc45)cc3F)ccnc2cc1OCCCN1CCOCC1 [Example 114, Benzo[b]thiophene-3-sulfonic acid {3-fluoro-4-[6-methoxy-7-(3-morpholin-4-yl-propoxy)-quinolin-4-yloxy]-phenyl}-amide] | ≥ 4.90 | 4.60 to 5.00
13 | > 6.30 | ≥ 4.90 | 132 to 135 °C | COc1cc2c(Oc3ccc(NS(=O)(=O)c4csc5ccccc45)cc3F)ccnc2cc1OCCCN1CCC(C)CC1 [Example 115, Benzo[b]thiophene-3-sulfonic acid (3-fluoro-4-{6-methoxy-7-[3-(4-methyl-piperidin-1-yl)-propoxy]-quinolin-4-loxy}-phenyl)-amide] | ≥ 4.90 | ≥ 5.00
